Experiments:
Type in all cases: in vivo
[1] = tested on: barnyardgrass (Echinochloa crus-galli); experiment: Test A pre-/postemergence: barnyardgrass; conditions: for Barnyardgrass plant response rating: Postemergence; for Plant response rating, Barnyardgrass: Preemergence
Summary of the method: (§1)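 Soil medium was loam blended with sand; treatments pre- and postemergence were applied concurrently, postemergence at one- to two-leaf stage. Approximately ten days in greenhouse preceded visual comparison with untreated controls, scored 0 (no effect) to 100 (complete control).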

rice (Oryza sativa) = experiment: Test C flooded paddy test: rice; conditions: scale 0 to 100 (0 no effect, 100 complete control)
Summary of the method: (§2)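 Greenhouse plants treated at the 2-leaf stage by dosing the flood water (3 cm depth, maintained) were compared with controls after 13 to 15 days and rated 0 to 100, where 100 means complete control; a dash marks no test result.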

[2] = tested on: barnyardgrass (Echinochloa crus-galli); experiment: Test C flooded paddy test: barnyardgrass; conditions: scale 0 to 100 (0 no effect, 100 complete control)
Summary of the method: as §2

[3] = tested on: crabgrass, large (large crabgrass, Digitaria sanguinalis); experiment: Test A pre-/postemergence: crabgrass, large; conditions: for Crabgrass, Large plant response rating: Postemergence; for Plant response rating, Crabgrass, Large: Preemergence
Summary of the method: as §1

[4] = tested on: morningglory (Ipomoea spp.); experiment: Test A pre-/postemergence: morningglory; conditions: for Morningglory plant response rating: Postemergence; for Plant response rating, Morningglory: Preemergence
Summary of the method: as §1

[5] = tested on: foxtail, giant (giant foxtail, Setaria faberii); experiment: Test A pre-/postemergence: foxtail, giant; conditions: for Foxtail, Giant plant response rating: Postemergence; for Plant response rating, Foxtail, Giant: Preemergence
Summary of the method: as §1

[6] = tested on: ducksalad (Heteranthera limosa); experiment: Test C flooded paddy test: ducksalad; conditions: scale 0 to 100 (0 no effect, 100 complete control)
Summary of the method: as §2

[7] = tested on: velvetleaf (Abutilon theophrasti); experiment: Test A pre-/postemergence: velvetleaf; conditions: for Velvetleaf plant response rating: Postemergence; for Plant response rating, Velvetleaf: Preemergence
Summary of the method: as §1

[8] = tested on: sedge, umbrella (small-flower umbrella sedge, Cyperus difformis); experiment: Test C flooded paddy test: sedge, umbrella; conditions: scale 0 to 100 (0 no effect, 100 complete control)
Summary of the method: as §2

[9] = tested on: pigweed (Amaranthus retroflexus); experiment: Test A pre-/postemergence: pigweed; conditions: for Pigweed plant response rating: Postemergence; for Plant response rating, Pigweed: Preemergence
Summary of the method: as §1

[10] = tested on: wheat (Triticum aestivum); experiment: Test A pre-/postemergence: wheat; conditions: for Wheat plant response rating: Postemergence; for Plant response rating, Wheat: Preemergence
Summary of the method: as §1

corn (Zea mays) = experiment: Test A pre-/postemergence: corn; conditions: for Corn plant response rating: Postemergence; for Plant response rating, Corn: Preemergence
Summary of the method: as §1

[11] = 125 g ai/ha, 0 to 100 scale, 0 is no effect, 100 is complete control
[12] = 500 g ai/ha, visual rating on 0 to 100 scale (0 no effect, 100 complete control), approximately ten days
[13] = 125 g ai/ha, 0 to 100 scale (0 no effect, 100 complete control)
[14] = 500 g ai/ha, 0 to 100 scale, 0 is no effect, 100 is complete control
[15] = Flood (flooded paddy test), 62 g ai/ha, visual rating after 13 to 15 days
[16] = Flood (flooded paddy test), 125 g ai/ha, visual rating after 13 to 15 days
[17] = Flood (flooded paddy test), 250 g ai/ha, visual rating after 13 to 15 days

Cc1nn(-c2ccc([N+](=O)[O-])cc2)nc1C(=O)c1cccc(C(F)(F)F)c1 [Compound 41]
Barnyardgrass plant response rating [1, 11]: 10
Barnyardgrass plant response rating [1, 12]: 10
Plant response rating, Barnyardgrass [1, 13]: 10
Plant response rating, Barnyardgrass [1, 14]: 20
Plant response rating, Rice (rice (Oryza sativa); [15]): 0
Plant response rating, Rice (rice (Oryza sativa); [16]): 0
Plant response rating, Rice (rice (Oryza sativa); [17]): 0
Plant response rating, Rice (rice (Oryza sativa); Flood, 31 g ai/ha): 0
Plant response rating, Barnyardgrass [2, 15]: 0
Plant response rating, Barnyardgrass [2, 16]: 0
Plant response rating, Barnyardgrass [2, 17]: 0
Plant response rating, Barnyardgrass ([2]; Flood, 31 g ai/ha): 0
Crabgrass, Large plant response rating [3, 11]: 10
Crabgrass, Large plant response rating [3, 12]: 30
Plant response rating, Crabgrass, Large [3, 13]: 20
Plant response rating, Crabgrass, Large [3, 14]: 70
Morningglory plant response rating [4, 11]: 10
Morningglory plant response rating [4, 12]: 10
Plant response rating, Morningglory [4, 13]: 0
Plant response rating, Morningglory [4, 14]: 10
Foxtail, Giant plant response rating [5, 11]: 10
Foxtail, Giant plant response rating [5, 12]: 20
Plant response rating, Foxtail, Giant [5, 13]: 40
Plant response rating, Foxtail, Giant [5, 14]: 70
Plant response rating, Ducksalad [6, 15]: 0
Plant response rating, Ducksalad [6, 16]: 0
Plant response rating, Ducksalad [6, 17]: 0
Plant response rating, Ducksalad ([6]; Flood, 31 g ai/ha): 0
Velvetleaf plant response rating [7, 11]: 10
Velvetleaf plant response rating [7, 12]: 50
Plant response rating, Velvetleaf [7, 13]: 10
Plant response rating, Velvetleaf [7, 14]: 10
Plant response rating, Sedge, Umbrella [8, 15]: 0
Plant response rating, Sedge, Umbrella [8, 16]: 0
Plant response rating, Sedge, Umbrella [8, 17]: 0
Plant response rating, Sedge, Umbrella ([8]; Flood, 31 g ai/ha): 0
Pigweed plant response rating [9, 11]: 30
Pigweed plant response rating [9, 12]: 80
Plant response rating, Pigweed [9, 13]: 20
Plant response rating, Pigweed [9, 14]: 50
Wheat plant response rating [10, 11]: 0
Wheat plant response rating [10, 12]: 10
Plant response rating, Wheat [10, 13]: 0
Plant response rating, Wheat [10, 14]: 0
Corn plant response rating (corn (Zea mays); [11]): 10
Corn plant response rating (corn (Zea mays); [12]): 20
Plant response rating, Corn (corn (Zea mays); [13]): 0
Plant response rating, Corn (corn (Zea mays); [14]): 0

Cc1nn(-c2ccc(Cl)cc2)nc1C(=O)c1cccc(C(F)(F)F)c1 [Compound 42]
Barnyardgrass plant response rating [1, 11]: 0
Barnyardgrass plant response rating [1, 12]: 10
Plant response rating, Barnyardgrass [1, 13]: 0
Plant response rating, Barnyardgrass [1, 14]: 10
Plant response rating, Rice (rice (Oryza sativa); [15]): 0
Plant response rating, Rice (rice (Oryza sativa); [17]): 0
Plant response rating, Barnyardgrass [2, 15]: 0
Plant response rating, Barnyardgrass [2, 17]: 0
Crabgrass, Large plant response rating [3, 11]: 10
Crabgrass, Large plant response rating [3, 12]: 30
Plant response rating, Crabgrass, Large [3, 13]: 10
Plant response rating, Crabgrass, Large [3, 14]: 50
Morningglory plant response rating [4, 11]: 10
Morningglory plant response rating [4, 12]: 50
Plant response rating, Morningglory [4, 13]: 0
Plant response rating, Morningglory [4, 14]: 10
Foxtail, Giant plant response rating [5, 11]: 10
Foxtail, Giant plant response rating [5, 12]: 20
Plant response rating, Foxtail, Giant [5, 13]: 10
Plant response rating, Foxtail, Giant [5, 14]: 70
Plant response rating, Ducksalad [6, 15]: 0
Plant response rating, Ducksalad [6, 17]: 0
Velvetleaf plant response rating [7, 11]: 10
Velvetleaf plant response rating [7, 12]: 20
Plant response rating, Velvetleaf [7, 13]: 0
Plant response rating, Velvetleaf [7, 14]: 0
Plant response rating, Sedge, Umbrella [8, 15]: 0
Plant response rating, Sedge, Umbrella [8, 17]: 0
Pigweed plant response rating [9, 11]: 50
Pigweed plant response rating [9, 12]: 90
Plant response rating, Pigweed [9, 13]: 10
Plant response rating, Pigweed [9, 14]: 60
Wheat plant response rating [10, 11]: 0
Wheat plant response rating [10, 12]: 10
Plant response rating, Wheat [10, 13]: 0
Plant response rating, Wheat [10, 14]: 0
Corn plant response rating (corn (Zea mays); [11]): 10
Corn plant response rating (corn (Zea mays); [12]): 10
Plant response rating, Corn (corn (Zea mays); [13]): 0
Plant response rating, Corn (corn (Zea mays); [14]): 0
